Assay results from patent publication US20220372014A1, “NEUROPROTECTIVE COMPOUNDS AND METHODS OF USE THEREOF” (The Johns Hopkins University, priority 2019, published 2022).

Experiments:
MIF = biological target: T1, MIF (Homo sapiens, UniProt P14174); assay: Nuclease assay of Example 3 (MIF inhibitory activity, Table 4); type: biochemical; parameters: (%) inhibition of MIF nuclease activity: concentration or dose not given beside the values; details: nuclease assay of Example 3
T1 sequence (P14174 1-115): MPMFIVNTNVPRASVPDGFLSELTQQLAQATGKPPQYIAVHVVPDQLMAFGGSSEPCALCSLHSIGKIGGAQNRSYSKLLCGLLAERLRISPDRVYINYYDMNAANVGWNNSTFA
In short: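 Human genomic DNA (200 ng), pcDNA (200 ng) or PS^30-type substrates (1 μM) were incubated with MIF (0.25-8 μM final) in 10 mM Tris-HCl pH 7.0, 10 mM MgCl2, 1 mM DTT at 37 °C for 1 h (pcDNA, small substrates) or 4 h (genomic DNA). Cleavage was assessed by agarose or PAGE electrophoresis with EtBr staining and chemiluminescent detection of biotin-labelled DNA.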

[1] = test system: HeLa cells or neuronal cells; assay: Cell death assay of Example 3 (MNNG, alamarBlue; protection against parthanatos, Table 4); type: cell-based; details: 1 μM test compound, MNNG-induced cell death, alamarBlue
In short: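 HeLa or neuronal cells (1×10^4/well) were pretreated 1 h at 37° C with 1 μM compound, exposed to MNNG for 15 min, washed, then re-incubated 18 h with 1 μM compound. Viability was read by alamarBlue fluorescence (ex 560/em 590 nm). Cell death was expressed relative to control wells.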

SMILES: CCC[C@@H]1NC(=O)[C@H](COC(C)(C)C)N(C)C(=O)C(c2ccccc2)NC(=O)[C@H](C)N(C)C(=O)COc2cccc(c2)[C@@H](CCc2ccc(OC)c(OC)c2)OC(=O)[C@@H]2CCCCN2C(=O)C(=O)C(C)(C)COC(=O)C=CCCN(C)C1=O (some centres unmarked) [compound 49]
- (%) inhibition of MIF nuclease activity (MIF): 14.7%
- (%) inhibition of cell death [1]: 60.0%

SMILES: COc1ccc(CC[C@H]2OC(=O)[C@@H]3CCCCN3C(=O)C(=O)C(C)(C)COC(=O)C=CCCN(C)C(=O)[C@@H]3CCCN3C(=O)[C@H](COC(C)(C)C)N(C)C(=O)C(c3ccccc3)NC(=O)[C@H](C(C)CC(C)(C)C)N(C)C(=O)COc3cccc2c3)cc1OC (some centres unmarked) [compound 147]
- (%) inhibition of MIF nuclease activity (MIF): −4.7%
- (%) inhibition of cell death [1]: 46.2%

SMILES: COc1ccc(CC[C@H]2OC(=O)[C@@H]3CCCCN3C(=O)C(=O)C(C)(C)COC(=O)C=CCCN(C)C(=O)[C@H](c3ccccc3)NC(=O)[C@H](COC(C)(C)C)N(C)C(=O)C(c3ccccc3)NC(=O)CN(C)C(=O)COc3cccc2c3)cc1OC (some centres unmarked) [compound 45]
- (%) inhibition of MIF nuclease activity (MIF): 15.4%
- (%) inhibition of cell death [1]: 51.9%

SMILES: COc1ccc(CC[C@H]2OC(=O)[C@@H]3CCCCN3C(=O)C(=O)C(C)(C)COC(=O)C=CCCN(C)C(=O)[C@@H]3CCCN3C(=O)[C@H](COC(C)(C)C)N(C)C(=O)C(c3ccccc3)NC(=O)[C@H](COC(C)(C)C)N(C)C(=O)COc3cccc2c3)cc1OC (some centres unmarked) [compound 146]
- (%) inhibition of MIF nuclease activity (MIF): −1.1%
- (%) inhibition of cell death [1]: 43.9%

SMILES: COc1ccc(CC[C@H]2OC(=O)[C@@H]3CCCCN3C(=O)C(=O)C(C)(C)COC(=O)C=CCCN(C)C(=O)[C@H](C(C)C)NC(=O)[C@H](COC(C)(C)C)N(C)C(=O)C(c3ccccc3)NC(=O)[C@H](C)N(C)C(=O)COc3cccc2c3)cc1OC (some centres unmarked) [compound 59]
- (%) inhibition of MIF nuclease activity (MIF): 13.3%
- (%) inhibition of cell death [1]: 58.9%

SMILES: CCC[C@@H]1NC(=O)[C@H](COC(C)(C)C)N(C)C(=O)[C@@H](CC(C)C)NC(=O)CN(C)C(=O)COc2cccc(c2)[C@@H](CCc2ccc(OC)c(OC)c2)OC(=O)[C@@H]2CCCCN2C(=O)C(=O)C(C)(C)COC(=O)C=CCCN(C)C1=O [compound 4]
- (%) inhibition of MIF nuclease activity (MIF): 10.8%
- (%) inhibition of cell death [1]: 39.7%

SMILES: COc1ccc(CC[C@H]2OC(=O)[C@@H]3CCCCN3C(=O)C(=O)C(C)(C)COC(=O)C=CCCN(C)C(=O)[C@H](Cc3ccc4ccccc4c3)NC(=O)[C@H](COC(C)(C)C)N(C)C(=O)[C@H](Cc3ccc4ccccc4c3)NC(=O)[C@H](C)N(C)C(=O)COc3cccc2c3)cc1OC [compound 28]
- (%) inhibition of MIF nuclease activity (MIF): 66.6%
- (%) inhibition of cell death [1]: 69.6%

SMILES: COc1ccc(CC[C@H]2OC(=O)[C@@H]3CCCCN3C(=O)C(=O)C(C)(C)COC(=O)C=CCCN(C)C(=O)[C@@H](CC(C)C)NC(=O)[C@H](COC(C)(C)C)N(C)C(=O)[C@H](Cc3ccc4ccccc4c3)NC(=O)[C@H](C)N(C)C(=O)COc3cccc2c3)cc1OC [compound 22]
- (%) inhibition of MIF nuclease activity (MIF): 61.8%
- (%) inhibition of cell death [1]: 56.9%

SMILES: COc1ccc(CC[C@H]2OC(=O)[C@@H]3CCCCN3C(=O)C(=O)C(C)(C)COC(=O)C=CCCN(C)C(=O)[C@@H]3CCCN3C(=O)[C@H](COC(C)(C)C)N(C)C(=O)C(c3ccccc3)NC(=O)[C@H](C)N(C)C(=O)COc3cc2ccc3F)cc1OC (some centres unmarked) [compound 114]
- (%) inhibition of MIF nuclease activity (MIF): −2.4%
- (%) inhibition of cell death [1]: 44.9%

SMILES: COc1ccc(CC[C@H]2OC(=O)[C@@H]3CCCCN3C(=O)C(=O)C(C)(C)COC(=O)C=CCCN(C)C(=O)[C@H](Cc3ccccc3)NC(=O)[C@H](Cc3ccccc3)N(C)C(=O)[C@@H](C)NC(=O)CN(C)C(=O)COc3cccc2c3)cc1OC [compound 68]
- (%) inhibition of MIF nuclease activity (MIF): 44.0%
- (%) inhibition of cell death [1]: 58.0%

SMILES: COc1ccc(CC[C@H]2OC(=O)[C@@H]3CCCCN3C(=O)C(=O)C(C)(C)COC(=O)C=CCCN(C)C(=O)[C@H](C)NC(=O)[C@H](COC(C)(C)C)N(C)C(=O)C(c3ccccc3)NC(=O)[C@H](C)N(C)C(=O)COc3cccc2c3)cc1OC (some centres unmarked) [compound 47]
- (%) inhibition of MIF nuclease activity (MIF): 52.3%
- (%) inhibition of cell death [1]: 54.2%

SMILES: COCC[C@@H]1NC(=O)[C@H](COC(C)(C)C)N(C)C(=O)[C@H](Cc2ccc3ccccc3c2)NC(=O)[C@H](C)N(C)C(=O)COc2cccc(c2)[C@@H](CCc2ccc(OC)c(OC)c2)OC(=O)[C@@H]2CCCCN2C(=O)C(=O)C(C)(C)COC(=O)C=CCCN(C)C1=O [compound 20]
- (%) inhibition of MIF nuclease activity (MIF): 42.2%
- (%) inhibition of cell death [1]: 60.6%

SMILES: COc1ccc(CC[C@H]2OC(=O)[C@@H]3CCCCN3C(=O)C(=O)C(C)(C)COC(=O)C=CCCN(C)C(=O)[C@@H](C)NC(=O)[C@H](C(C)C)N(C)C(=O)[C@@H](Cc3ccccc3)NC(=O)[C@H](CC(C)C)N(C)C(=O)CCC(=O)Nc3cccc2c3)cc1OC [compound 78]
- (%) inhibition of MIF nuclease activity (MIF): 9.0%
- (%) inhibition of cell death [1]: 44.7%

SMILES: COc1ccc(CC[C@H]2OC(=O)[C@@H]3CCCCN3C(=O)C(=O)C(C)(C)COC(=O)C=CCCN(C)C(=O)[C@@H]3CCCN3C(=O)[C@H](COC(C)(C)C)N(C)C(=O)C(c3ccccc3)NC(=O)C(c3ccccc3)N(C)C(=O)COc3cccc2c3)cc1OC (some centres unmarked) [compound 144]
- (%) inhibition of MIF nuclease activity (MIF): 10.7%
- (%) inhibition of cell death [1]: 51.3%

SMILES: COc1ccc(CC[C@H]2OC(=O)[C@@H]3CCCCN3C(=O)C(=O)C(C)(C)COC(=O)C=CCCN(C)C(=O)[C@H](Cc3ccc4ccccc4c3)NC(=O)[C@H](COC(C)(C)C)N(C)C(=O)C(c3ccccc3)NC(=O)CN(C)C(=O)COc3cccc2c3)cc1OC (some centres unmarked) [compound 43]
- (%) inhibition of MIF nuclease activity (MIF): 45.6%
- (%) inhibition of cell death [1]: 54.8%

SMILES: COc1ccc(CC[C@H]2OC(=O)[C@@H]3CCCCN3C(=O)C(=O)C(C)(C)COC(=O)C=CCCN(C)C(=O)[C@H](Cc3ccc4ccccc4c3)NC(=O)[C@H](C(C)C)N(C)C(=O)[C@@H](Cc3ccccc3)NC(=O)[C@H](CC(C)C)N(C)C(=O)CCC(=O)Nc3cccc2c3)cc1OC [compound 88]
- (%) inhibition of MIF nuclease activity (MIF): 21.3%
- (%) inhibition of cell death [1]: 52.7%

SMILES: CCC[C@@H]1NC(=O)[C@H](C(C)C)N(C)C(=O)[C@@H](Cc2ccccc2)NC(=O)[C@H](CC(C)C)N(C)C(=O)CCC(=O)Nc2cccc(c2)[C@@H](CCc2ccc(OC)c(OC)c2)OC(=O)[C@@H]2CCCCN2C(=O)C(=O)C(C)(C)COC(=O)C=CCCN(C)C1=O [compound 79]
- (%) inhibition of MIF nuclease activity (MIF): 6.7%
- (%) inhibition of cell death [1]: 43.4%

SMILES: COc1ccc(CC[C@H]2OC(=O)[C@@H]3CCCCN3C(=O)C(=O)C(C)(C)COC(=O)C=CCCN(C)C(=O)[C@H](CC(C)C)NC(=O)[C@H](Cc3ccccc3)N(C)C(=O)[C@@H](C)NC(=O)CN(C)C(=O)COc3cccc2c3)cc1OC [compound 66]
- (%) inhibition of MIF nuclease activity (MIF): 67.0%
- (%) inhibition of cell death [1]: 71.4%

SMILES: COc1ccc(CC[C@H]2OC(=O)[C@@H]3CCCCN3C(=O)C(=O)C(C)(C)COC(=O)C=CCCN(C)C(=O)[C@@H](CC(C)C)NC(=O)[C@H](COC(C)(C)C)N(C)C(=O)C(c3ccccc3)NC(=O)CN(C)C(=O)COc3cccc2c3)cc1OC (some centres unmarked) [compound 37]
- (%) inhibition of MIF nuclease activity (MIF): 18.0%
- (%) inhibition of cell death [1]: 59.6%

SMILES: COc1ccc(CC[C@H]2OC(=O)[C@@H]3CCCCN3C(=O)C(=O)C(C)(C)COC(=O)C=CCCN(C)C(=O)[C@@H]3CCCN3C(=O)[C@H](CO)N(C)C(=O)C(c3ccccc3)NC(=O)C(CO)N(C)C(=O)COc3cccc2c3)cc1OC (some centres unmarked) [compound 108]
- (%) inhibition of MIF nuclease activity (MIF): 4.2%
- (%) inhibition of cell death [1]: 20.4%

SMILES: COc1ccc(CC[C@H]2OC(=O)[C@@H]3CCCCN3C(=O)C(=O)C(C)(C)COC(=O)C=CCCN(C)C(=O)[C@@H]3CCCN3C(=O)[C@H](COC(C)(C)C)N(C)C(=O)C(c3ccccc3)N(C)C(=O)[C@H](C)NC(=O)COc3cccc2c3)cc1OC (some centres unmarked) [compound 137]
- (%) inhibition of MIF nuclease activity (MIF): 9.4%
- (%) inhibition of cell death [1]: 44.5%

SMILES: COc1ccc(CC[C@H]2OC(=O)[C@@H]3CCCCN3C(=O)C(=O)C(C)(C)COC(=O)C=CCCN(C)C(=O)[C@H](Cc3ccccc3)NC(=O)[C@H](COC(C)(C)C)N(C)C(=O)[C@H](Cc3ccc4ccccc4c3)NC(=O)[C@H](C)N(C)C(=O)COc3cccc2c3)cc1OC [compound 23]
- (%) inhibition of MIF nuclease activity (MIF): 45.7%
- (%) inhibition of cell death [1]: 58.7%

SMILES: COCC[C@@H]1NC(=O)[C@H](C(C)C)N(C)C(=O)[C@@H](Cc2ccccc2)NC(=O)[C@H](CC(C)C)N(C)C(=O)CCC(=O)Nc2cccc(c2)[C@@H](CCc2ccc(OC)c(OC)c2)OC(=O)[C@@H]2CCCCN2C(=O)C(=O)C(C)(C)COC(=O)C=CCCN(C)C1=O [compound 80]
- (%) inhibition of MIF nuclease activity (MIF): 10.3%
- (%) inhibition of cell death [1]: 49.5%

SMILES: COc1cc(CC[C@H]2OC(=O)[C@@H]3CCCCN3C(=O)C(=O)C(C)(C)COC(=O)C=CCCN(C)C(=O)[C@@H]3CCCN3C(=O)[C@H](COC(C)(C)C)N(C)C(=O)C(c3ccccc3)NC(=O)[C@H](C)N(C)C(=O)COc3cccc2c3)cc(F)c1OC (some centres unmarked) [compound 111]
- (%) inhibition of MIF nuclease activity (MIF): 6.8%
- (%) inhibition of cell death [1]: 48.9%

SMILES: COc1ccc(CC[C@H]2OC(=O)[C@@H]3CCCCN3C(=O)C(=O)C(C)(C)COC(=O)C=CCCN(C)C(=O)[C@@H]3CCCN3C(=O)[C@H](COC(C)(C)C)N(C)C(=O)[C@@H](c3ccccc3)NC(=O)[C@H](C)N(C)C(=O)COc3cc(F)cc2c3)cc1OC (racemic) [compound 153]
- (%) inhibition of MIF nuclease activity (MIF): 71.7%
- (%) inhibition of cell death [1]: 93.2%
